Experiments:
Experiment in all cases: Antimicrobial action, microbe count (Example 6)
Type in all cases: cell-based
Candida albicans = conditions: conc. 0.5%; for Δlog: t24 h
Experimental: (§1) For sample preparation, the substances being investigated are each dissolved or homogeneously dispersed in an amount of 1.0% in a water/ethanol mixture (12% of ethanol) (=sample). A bacteria suspension of S. epidermidis (ATCC 12228) having an optical density of 1.0 in CASO broth (Merck 1.05459) is diluted 1:10000 with CASO broth. 500 μl of sample are added to 500 μl of bacteria suspension, and the mixture is incubated at 35° C. for 24 h. After the incubation, the test batches are diluted to −6 in 10 unit steps, and 0.1 ml of each is plated-out on CASO agar (Merck 1.05458) and incubated at 35° C. for 24 h.
(§2) In order to determine the initial microbe count, 0.1 ml of the bacteria suspension used are plated-out on CASO agar (Merck 1.05458) and incubated at 35° C. for 24 h.
(§3) The colonies are subsequently counted, and the microbe count per ml is determined compared with the negative control (12% of ethanol in water).
(§4) The procedure corresponds to that described in Examples 4 and 5 using the microorganisms shown below. The concentrations indicated are the final use concentrations. In order to prepare the stock solution, double the final concentration were prepared in the solvent indicated. This was subsequently diluted 1:2 with the corresponding microbe suspension. In the case of Aspergillus brasiliensis, the microbe count determination was exceptionally carried out after 48 h.

Aspergillus brasiliensis = conditions: conc. 0.5%, H2O (12% of ethanol), count t0 2.0 × 10^4
Experimental: (§5) For sample preparation, the substances being investigated are each dissolved or homogeneously dispersed in an amount of 1.0% in a water/ethanol mixture (12% of ethanol) and subsequently diluted with bacteria suspension in the ratio 1 to 2. P. acnes (ATCC 6919) is pre-incubated under anaerobic conditions for 48 h at 35° C. on RMC agar (Merck 1.05410). A bacteria suspension having an optical density (OD) of about 1.5 is subsequently prepared in RMC broth (Merck 1.05411, double-concentrated). 150 μl of freshly prepared sample and 100 μl of paraffin are added to 150 μl of bacteria suspension per well. The optical density is determined over the course of time at 37° C. using a Bioscreen C™ analyser compared with the negative control (=vehicle without test substance). Compared with the negative control, reduced optical densities confirm growth-inhibiting substance actions.
as §1, §2, §3, §4

Echerichia coli = conditions: conc. 0.5%, H2O (12% of ethanol), count t0 4.6 × 10^4
Experimental: as §5, §1, §2, §3, §4

[1] = H2O (12% of ethanol), count t0 3.4 × 10^4

How did the “Microbe count t24 h” value (Candida albicans; [1]) turn out when `CCOC(=O)C1CCCCC1O` (centres unmarked) [Substance I-2] was run?
The value was 3.0 × 10^2.

And the Δlog (Candida albicans; [1])?
The Δlog was −2.05.

What about the “Microbe count t24 h” value (Candida albicans; H2O, count t0 3.8 × 10^5) of the same molecule?
The value was 2.5 × 10^5.

What about the Δlog (Candida albicans; H2O, count t0 3.8 × 10^5) of the same molecule?
Its Δlog is −0.18.

What about the Δlog (Aspergillus brasiliensis; count after 48 h) of the same molecule?
Its Δlog is −0.30.

What about the “Microbe count t24 h” value (Aspergillus brasiliensis; count carried out after 48 h) of the same molecule?
The value was 1.0 × 10^4.

What about the “Microbe count t24 h” value (Echerichia coli) of the same molecule?
Its value is 1.8 × 10^3.

What about the Δlog (Echerichia coli; t24 h) of the same molecule?
Its Δlog is −1.41.

Reference: patent publication USRE46698E1, “Use of cyclohexanol derivatives as antimicrobial active compounds” (MERCK PATENT GMBH, priority 2011, dated 2018)
